Measured values as given in paper PMC8389907 (Journal of Medicinal Chemistry, 2021).
Where two headings read alike, the source gives them in different places.

Assays:
WH1 human fibroblasts = test: MTT cell viability assay, WH1 fibroblasts; format: cell-based; conditions: Fibroblast, 72 h treatment
Procedure: (§1) The cell lines DU145 (HTB-81, human prostate carcinoma), PC3 (CRL-1435, human prostate adenocarcinoma), MCF7 (HTB-22, human breast adenocarcinoma), MDA-MB231 (HTB-26, human breast adenocarcinoma), and HCT116 (CCL-247, human colorectal carcinoma) were obtained from ATCC (American Type Culture Collection, Manassas, VA, USA); WH1 human fibroblasts were kindly provided by Dr. Guven.[51] All the cells were maintained under standard culture conditions (37 °C; 5% CO2) in the RMPI1640 medium (PC3, MCF7, and MDA-MB231 cells), while DU145 and HCT116 cells were in the DMEM and Iscove’s medium (WH1 cells) supplemented with 10% fetal calf serum, 1% glutamine, and 1% antibiotics mixture; for HCT116 and DU145 cells, 1% sodium pyruvate and 1% non-essential amino acids were also added to the culture medium.
(§2) The 3-(4,5-dimethylthiazol-2-yl)-2,5-diphenyltetrazolium bromide (MTT) assay was performed on all the cell lines tested as previously described[52] with minor modifications. Briefly, according to the growth profiles previously defined for each cell line, adequate numbers of cells were plated in each well of a 96-well plate in 0.1 mL of complete culture medium. Cells were allowed to attach for 24 h before the treatment at 37 °C for 72 h with the compounds at concentrations ranging between 0.1 and 75 μM, bringing the final volume to 0.2 mL/well. Each experiment included eight replications per concentration tested; control samples were run with 0.2% DMSO. At the end of the incubation period, MTT (0.05 mL of a 2 mg/mL stock solution in PBS) was added to each well for 3 h at 37 °C. Cell supernatants were then carefully removed, the blue formazan crystals formed through MTT reduction by metabolically active cells were dissolved in 0.120 mL of DMSO, and the corresponding optical densities were measured at 570 nm using a Universal Microplate Reader EL800 (Bio-Tek, Winooski, VT).
(§3) IC50 values were estimated from the resulting concentration–response curves by nonlinear regression analysis using GraphPad Prism software, v. 5.0 (GraphPad, San Diego, CA, USA). Differences between IC50 values were evaluated statistically by analysis of variance with a Bonferroni post-test for multiple comparisons.

DU145 cells [1] = test: MTT cell viability assay, DU145; format: cell-based; conditions: Homo sapiens, DU-145
Procedure: as §1, §2, §3

MCF7 cells = test: MTT cell viability assay, MCF7; format: cell-based; conditions: Homo sapiens, 72 h treatment, MTT, read-out: IC50 MCF7
Procedure: as §1, §2, §3

HCT116 cells = test: MTT cell viability assay, HCT116; format: cell-based; conditions: Homo sapiens, HCT-116
Procedure: as §1, §2, §3

PC3 cells [2] = test: MTT cell viability assay, PC3; format: cell-based; conditions: Homo sapiens, PC-3
Procedure: as §1, §2, §3

HBL100 cells = test: MTT cell viability assay, non-tumorigenic HBL100; format: cell-based; conditions: Homo sapiens, HBL-100, 72 h treatment
Procedure: as §2, §3

MCF7/ADR cells = test: MTT cell viability assay, DOX-resistant MCF7/ADR; format: cell-based, human; conditions: for IC50: Homo sapiens, NCI/ADR-RES, 72 h treatment, MTT; for R.I. (resistance index): MCF7/ADR vs MCF7
Procedure: as §2, §3

MDA-MB231 cells = test: MTT cell viability assay, MDA-MB231; format: cell-based; conditions: Homo sapiens, MDA-MB-231
Procedure: as §1, §2, §3

PC3 cells [3] = test: MTT assay with 1 h irradiation, PC3; format: cell-based, human; conditions: 24 h treatment, 1 h white or blue light, 48 h drug-free medium
Procedure: (§4) To evaluate the contribution of NO release on cell viability, the MTT assay was performed on DU145 and PC3 cells following treatment with 7b and 7c with 1 h irradiation and 48 h incubation in a drug-free medium.
as §3

DU145 cells [4] = test: MTT assay with 1 h irradiation, DU145; format: cell-based, human; conditions: 24 h treatment, 1 h white or blue light, 48 h drug-free medium
Procedure: as §4, §3

[5] = supplement csv, unit inferred, read-out: DU145 IC50
[6] = supplement csv, unit inferred, read-out: HCT116 IC50
[7] = supplement csv, unit inferred, read-out: PC3 IC50
[8] = supplement csv, unit inferred, read-out: MDA-MB231 IC50
[9] = 72 h treatment, MTT, read-out: IC50 DU145
[10] = 72 h treatment, MTT, read-out: IC50 MDA-MB231

Compound	IC50 (WH1 human fibroblasts) [µM]	IC50 (DU145 cells [1]; [5]) [µM]	melting point [°C]	IC50 (MCF7 cells) [µM]	IC50 (HCT116 cells; [6]) [µM]	IC50 (PC3 cells [2]; [7]) [µM]	IC50 (HBL100 cells) [µM]	IC50 (MCF7/ADR cells) [µM]	R.I. (resistance index) (MCF7/ADR cells)	IC50 (MDA-MB231 cells; [8]) [µM]	IC50 (DU145 cells [1]; [9]) [µM]	IC50 (PC3 cells [2]; 72 h treatment, MTT, read-out: IC50 PC3) [µM]	IC50 (MDA-MB231 cells; [10]) [µM]	IC50, irradiated vs kept in the dark, PC3 (PC3 cells [3])	IC50, irradiated vs kept in the dark, DU145 (DU145 cells [4])	IC50 (HCT116 cells; 72 h treatment, MTT, read-out: IC50 HCT116) [µM]
CCn1cc(C(=O)OC)c(=O)c2cc(F)c(N3CCN(CCNc4ccc([N+](=O)[O-])c(C(F)(F)F)c4)CC3)cc21 [Compound 6c, Methyl 1-Ethyl-6-fluoro-7-(4-(2-((4-nitro-3-(trifluoromethyl)phenyl)amino)ethyl)piperazin-1-yl)-4-oxo-1,4-dihydroquinoline-3-carboxylate]	10.6 ± 1.9	4.77 ± 0.99	245 to 247	15.04 ± 0.1	12.4 ± 2.9	9.26 ± 1.29	10.8 ± 0.6	17.2 ± 1	1.1	11.9 ± 1	–	–	–	–	–	–
CCn1cc(C(=O)OC)c(=O)c2cc(F)c(N3CCN(CCCNc4ccc([N+](=O)[O-])c(C(F)(F)F)c4)CC3)cc21 [Compound 6d, Methyl 1-Ethyl-6-fluoro-7-(4-(3-((4-nitro-3-(trifluoromethyl)phenyl)amino)propyl)piperazin-1-yl)-4-oxo-1,4-dihydroquinoline-3-carboxylate]	9.67 ± 1.65	5.49 ± 0.97	216 to 218	10.5 ± 1.2	11.7 ± 2.1	4.1 ± 0.61	3.68 ± 0.2	28 ± 1.1	2.7	8.89 ± 1.65	–	–	–	–	–	–
O=C(O)c1cn(C2CC2)c2cc(N3CCN(CCNc4ccc([N+](=O)[O-])c(C(F)(F)F)c4)CC3)c(F)cc2c1=O [Compound 7a, 1-Cyclopropyl-6-fluoro-7-(4-(2-((4-nitro-3-(trifluoromethyl)phenyl)amino)ethyl)piperazin-1-yl)-4-oxo-1,4-dihydroquinoline-3-carboxylic Acid]	5.7 ± 0.92	2.56 ± 0.21	–	3.12 ± 0.62	5.29 ± 0.72	2.48 ± 0.42	9.14 ± 0.44	14.7 ± 4.2	4.7	2.24 ± 0.18	< 3	< 3	< 2.5	–	–	–
O=C(O)c1cn(C2CC2)c2cc(N3CCN(CCCNc4ccc([N+](=O)[O-])c(C(F)(F)F)c4)CC3)c(F)cc2c1=O [Compound 7b, 1-Cyclopropyl-6-fluoro-7-(4-(3-((4-nitro-3-(trifluoromethyl)phenyl)amino)propyl)piperazin-1-yl)-4-oxo-1,4-dihydroquinoline-3-carboxylic Acid]	7.05 ± 1.2	2.42 ± 0.9	–	5.23 ± 0.82	–	3.02 ± 0.59	9.19 ± 0.66	23.6 ± 3.6	4.5	2.51 ± 0.43	< 3	–	< 2.5	no differences in IC50 values	no differences in IC50 values	1.83
CCn1cc(C(=O)O)c(=O)c2cc(F)c(N3CCN(CCCNc4ccc([N+](=O)[O-])c(C(F)(F)F)c4)CC3)cc21 [Compound 7d, 1-Ethyl-6-fluoro-7-(4-(3-((4-nitro-3-(trifluoromethyl)phenyl)amino)propyl)piperazin-1-yl)-4-oxo-1,4-dihydroquinoline-3-carboxylic Acid]	8.94 ± 0.91	–	–	5.83 ± 0.82	5.36 ± 0.65	4.83 ± 1.15	10.4 ± 0.9	20 ± 0.3	3.4	3.64 ± 0.63	1.56	–	–	–	–	–
COc1cccc2c1C(=O)c1c(O)c3c(c(O)c1C2=O)C[C@@](O)(C(=O)CO)C[C@@H]3O[C@H]1C[C@H](N)[C@H](O)[C@H](C)O1 [DOX, doxorubicin, reference compound]	–	–	–	–	–	–	–	66.9 ± 2.56	–	–	–	–	–	–	–	–
